These are literature values, as cited in patent US4801577A, “Nonapeptide and decapeptide analogs of LHRH useful as LHRH antagonists” (Syntex (U.S.A.) Inc., priority 1987, dated 1989).

The subject of the series is rat mast cells. The following applies: rat mast cells in vitro.

“(N-Ac-D-Nal(2)^1, D-pCl-Phe^2, D-Trp^3, Arg^5, D-Tyr^6, D-Ala^10)LHRH”: the “ED50 for histamine release” value is 2 µg/mL.

Take “(N-Ac-D-Nal(2)^1, D-pCl-Phe^2, D-Trp^3, D-Arg^6)LHRH”: the “ED50 for histamine release” value was 0.2 µg/mL.

As to “(N-Ac-D-Nal(2)^1, D-αMe-pCl-Phe^2, D-Pal(3)^3, D-Arg^6, hArg(Et2)^8, D-Ala^10)LHRH”, the “ED50 for histamine release” value was 4.9 µg/mL.

“(N-Ac-D-Nal(2)^1, pCl-Phe^2, D-Trp^3, D-Lys(iPr)^8,Lys(iPr)^6, D-Ala^10)LHRH”: the “ED50 for histamine release” value is 6.6 µg/mL.

For “LHRH: natural releasing hormone LHRH, a decapeptide comprised of naturally occurring amino acids”, the “ED50 for histamine release” value was 328 µg/mL.
